Laboratory results published in the supplement of paper PMC10307832.

Columns and labels:
Experiment in all cases: relative viability (nuclei count vs DMSO), 5 days (fraction); higher = more cells survive
[1] = compound: CC(C)C[C@H](NC(=O)[C@H](CCc1ccccc1)NC(=O)CN1CCOCC1)C(=O)N[C@@H](Cc1ccccc1)C(=O)N[C@@H](CC(C)C)C(=O)[C@@]1(C)CO1 [Carfilzomib] + COc1cccc2cc(-c3nc([C@H]4CC[C@H](C(=O)O)CC4)n4ncnc(N)c34)[nH]c12 [OSI-027] (partner 0.5 µM)
Outline: (§1)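 The day after seeding in 1536-well plates, lung cancer cell lines were treated by pin tool with a single drug, or with a fixed anchor-drug dose together with five library-drug doses (not always all listed) in √10 steps. After 5 days, a combined fix-and-stain solution (final 0.05% Triton X-100, 1% formaldehyde, 1 ug/ml Hoechst) was added. Nuclei counted on 4× images gave relative viability as treated counts over vehicle counts, reported as the median of duplicate plates.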

[2] = compound: CC(C)C[C@H](NC(=O)[C@H](CCc1ccccc1)NC(=O)CN1CCOCC1)C(=O)N[C@@H](Cc1ccccc1)C(=O)N[C@@H](CC(C)C)C(=O)[C@@]1(C)CO1 [Carfilzomib] + C[C@]1(O)C[C@@H](c2nc(-c3ccc4ccc(-c5ccccc5)nc4c3)c3c(N)nccn32)C1 [Linsitinib] (partner 1 µM)
Outline: as §1

[3] = compound: CC(C)C[C@H](NC(=O)[C@H](CCc1ccccc1)NC(=O)CN1CCOCC1)C(=O)N[C@@H](Cc1ccccc1)C(=O)N[C@@H](CC(C)C)C(=O)[C@@]1(C)CO1 [Carfilzomib] + O=C(c1cc(Cc2n[nH]c(=O)c3ccccc23)ccc1F)N1CCN(C(=O)C2CC2)CC1 [Olaparib] (partner 8 µM)
Outline: as §1

[4] = compound: O=C(c1cc(Cc2n[nH]c(=O)c3ccccc23)ccc1F)N1CCN(C(=O)C2CC2)CC1 [Olaparib] + Cc1cc(Nc2cc(N3CCN(C)CC3)nc(Sc3ccc(NC(=O)C4CC4)cc3)n2)n[nH]1 [Tozasertib] (partner 0.1 µM)
Outline: as §1

| Cell Line | relative viability ([1]; first compound 0.001 µM) | relative viability ([1]; first compound 0.003162 µM) | relative viability ([1]; first compound 0.01 µM) | relative viability ([1]; first compound 0.03162 µM) | relative viability ([1]; first compound 0.1 µM) | relative viability ([2]; first compound 0.001 µM) | relative viability ([2]; first compound 0.003162 µM) | relative viability ([2]; first compound 0.01 µM) | relative viability ([2]; first compound 0.03162 µM) | relative viability ([2]; first compound 0.1 µM) | relative viability ([3]; first compound 0.003162 µM) | relative viability ([3]; first compound 0.01 µM) | relative viability ([3]; first compound 0.03162 µM) | relative viability ([3]; first compound 0.1 µM) | relative viability ([4]; first compound 0.08 µM) | relative viability ([4]; first compound 0.253 µM) | relative viability ([4]; first compound 2.53 µM) | relative viability ([4]; first compound 8 µM) | relative viability ([3]; first compound 0.001 µM) |
| --- | --- | --- | --- | --- | --- | --- | --- | --- | --- | --- | --- | --- | --- | --- | --- | --- | --- | --- | --- |
| NCI-H1395 | 0.526 | 0.734 | 0.642 | 0.5 | 0.309 | 1.28 | 1.16 | 0.795 | 1.4 | 0.307 | 0.516 | 0.428 | 0.356 | 0.303 | 0.816 | 0.657 | 0.598 | 0.548 | – |
| NCI-H1437 | 0.876 | 0.952 | 0.841 | 0.889 | 0.241 | 0.965 | 1.08 | 0.984 | 0.388 | 0.117 | 0.666 | 0.645 | 0.419 | 0.171 | 0.424 | 0.393 | 0.394 | 0.379 | 0.629 |
| NCI-H1651 | 0.733 | 0.743 | 0.588 | 0.127 | 0.0922 | 0.982 | 0.965 | 0.487 | 0.0962 | 0.0748 | 0.188 | 0.167 | 0.101 | 0.0957 | 0.677 | 0.638 | 0.439 | 0.257 | 0.184 |
| NCI-H1666 | 0.807 | 0.87 | 0.955 | 0.749 | 0.383 | 0.844 | 0.796 | 0.79 | 0.545 | 0.24 | 0.782 | 0.75 | 0.709 | 0.528 | 0.619 | 0.733 | 0.583 | 0.515 | 0.757 |
| NCI-H1734 | 0.62 | 0.683 | 0.585 | 0.222 | 0.138 | 0.871 | 0.986 | 0.855 | 0.715 | 0.205 | 0.679 | 0.666 | 0.547 | 0.113 | 0.25 | 0.249 | 0.251 | 0.251 | 0.649 |
| NCI-H1755 | 0.707 | 0.777 | 0.746 | 0.65 | 0.25 | 0.984 | 0.986 | 0.982 | 0.97 | 0.218 | 0.934 | 0.875 | 0.609 | 0.343 | 0.611 | 0.547 | 0.548 | 0.531 | 0.978 |
| NCI-H1915 | 0.596 | 0.654 | 0.59 | 0.457 | 0.0943 | 1.1 | 1.1 | 1.05 | 0.655 | 0.106 | 0.265 | 0.248 | 0.247 | 0.058 | 0.447 | 0.372 | 0.368 | 0.274 | 0.292 |
| NCI-H1944 | 0.389 | 0.489 | 0.474 | 0.46 | 0.173 | 1.14 | 1.24 | 1.17 | 1.2 | 0.489 | 0.513 | 0.441 | 0.374 | 0.187 | 0.217 | 0.198 | 0.228 | 0.231 | 0.438 |
| NCI-H1975 | – | 0.715 | 0.503 | 0.0875 | 0.106 | 0.885 | 0.896 | 0.562 | 0.129 | 0.132 | 0.825 | 0.393 | 0.123 | 0.118 | 0.821 | 0.715 | 0.85 | 0.699 | 0.828 |
| NCI-H1993 | 0.573 | 0.569 | 0.576 | 0.443 | 0.459 | 0.758 | 0.773 | 0.712 | 0.607 | 0.563 | 1.11 | 1.1 | 1.04 | 0.407 | 0.546 | 0.537 | 0.557 | 0.521 | 0.984 |
| NCI-H2009 | 0.758 | 0.778 | 0.631 | 0.111 | 0.0867 | 1.24 | 1.28 | 1.22 | 0.494 | 0.0639 | 0.732 | 0.729 | 0.631 | 0.0565 | 0.81 | 0.678 | 0.761 | 0.648 | 0.736 |
| NCI-H2023 | 0.386 | 0.435 | 0.467 | 0.147 | 0.0792 | 0.6 | 0.768 | 0.653 | 0.607 | 0.0783 | 0.521 | 0.486 | 0.133 | 0.0615 | 0.357 | 0.298 | 0.32 | 0.238 | 0.484 |
| NCI-H2085 | 0.59 | 0.799 | 0.64 | 0.264 | 0.27 | 0.843 | 0.835 | 0.778 | 0.418 | 0.235 | 0.739 | 0.749 | 0.372 | 0.244 | 0.943 | 0.756 | 0.847 | 0.753 | 0.771 |
